Consider 16 molecules from patent US11447500B2, “Thienopyridine derivatives and pharmaceutical composition comprising same” (WELLMARKER BIO CO., LTD., priority 2018, dated 2022).

Counter-ions that a name gives are not always drawn.

T1 sequence (Q04912 25-1400): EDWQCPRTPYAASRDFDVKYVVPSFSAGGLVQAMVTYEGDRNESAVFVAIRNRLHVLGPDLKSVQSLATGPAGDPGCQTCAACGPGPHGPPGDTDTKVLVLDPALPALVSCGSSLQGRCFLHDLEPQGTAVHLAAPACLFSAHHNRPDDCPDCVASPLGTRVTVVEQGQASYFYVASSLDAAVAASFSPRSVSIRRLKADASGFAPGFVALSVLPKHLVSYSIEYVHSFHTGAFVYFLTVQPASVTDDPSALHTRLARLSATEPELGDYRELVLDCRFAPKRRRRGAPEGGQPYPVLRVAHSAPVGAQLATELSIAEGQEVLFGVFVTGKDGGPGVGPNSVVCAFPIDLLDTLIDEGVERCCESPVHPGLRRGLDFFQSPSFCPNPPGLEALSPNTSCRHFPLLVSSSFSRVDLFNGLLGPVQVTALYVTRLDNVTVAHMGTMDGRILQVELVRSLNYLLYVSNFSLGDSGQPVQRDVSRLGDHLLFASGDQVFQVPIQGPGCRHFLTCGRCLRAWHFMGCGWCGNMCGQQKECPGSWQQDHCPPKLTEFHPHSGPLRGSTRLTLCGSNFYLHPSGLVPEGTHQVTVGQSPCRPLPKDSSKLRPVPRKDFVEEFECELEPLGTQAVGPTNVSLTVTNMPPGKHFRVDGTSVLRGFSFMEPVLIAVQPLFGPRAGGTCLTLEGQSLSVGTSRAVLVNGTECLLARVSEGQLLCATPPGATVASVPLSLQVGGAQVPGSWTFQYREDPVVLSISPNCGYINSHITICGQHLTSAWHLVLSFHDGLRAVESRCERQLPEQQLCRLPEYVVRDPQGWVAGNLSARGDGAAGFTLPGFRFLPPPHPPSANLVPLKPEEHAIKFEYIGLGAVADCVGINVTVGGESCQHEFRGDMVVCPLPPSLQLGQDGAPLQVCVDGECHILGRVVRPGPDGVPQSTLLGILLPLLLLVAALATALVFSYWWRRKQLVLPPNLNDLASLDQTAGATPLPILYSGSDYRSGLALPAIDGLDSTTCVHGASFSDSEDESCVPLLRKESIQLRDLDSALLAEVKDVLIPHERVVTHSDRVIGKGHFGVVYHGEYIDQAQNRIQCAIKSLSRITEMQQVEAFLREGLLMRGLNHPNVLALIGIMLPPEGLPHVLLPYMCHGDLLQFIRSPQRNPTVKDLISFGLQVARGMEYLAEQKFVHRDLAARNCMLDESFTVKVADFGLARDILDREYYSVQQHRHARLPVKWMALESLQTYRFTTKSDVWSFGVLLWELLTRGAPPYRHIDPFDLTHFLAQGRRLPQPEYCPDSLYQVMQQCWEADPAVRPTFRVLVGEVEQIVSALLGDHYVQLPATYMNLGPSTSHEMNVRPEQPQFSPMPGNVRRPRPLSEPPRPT

One experiment concerns the target T1, RON kinase (Homo sapiens, UniProt Q04912).
T1 construct: purchased Carna Bioscience
The experiment can be described thus: RON kinase enzyme inhibitory activity, FRET (TR-FRET) technique. Format: biochemical. The following applies: 60 min reaction. As for the experimental part:
The enzyme inhibitory activity (IC50) of the thienopyridine derivative was measured using FRET (fluorescence resonance energy transfer) technique. RON kinase (Carna Bioscience) was diluted with a kinase assay buffer (50 mM HEPES pH 7.5, 1 mM EGTA, 10 mM MgCl2, 2 mM DTT, and 0.01% Tween-20) to a concentration of 2× (0.4 nM) the final reaction concentration and the dilution was added to a 384-well plate at 5 μL/well. As sample compounds, the compounds synthesized in the examples of the present invention and the compounds of the comparative examples were used. The sample compounds were respectively dissolved in 100% DMSO to obtain 1 mM stock solutions, which were then subjected to eight 10-fold serial dilutions. The sample compounds were diluted with the kinase assay buffer to a concentration of 4× the final reaction concentration, and the dilutions were added to the 384-well plate at 2.5 μL/well. The plate was incubated at room temperature for 15 minutes. Next, 0.25 M ATP solution (Sigma Aldrich) was diluted with the kinase reaction buffer to a concentration of 4× (60 μM) the final reaction concentration, and a tyrosine peptide substrate (Perkin-Elmer) was diluted therein to a concentration of 4× (400 nM) the final reaction concentration. The dilution was added to the 384-well plate at 2.5 μL/well. Then, the 384-well plate was incubated at room temperature and the reaction was allowed to proceed for 60 minutes. After 60 minutes, EDTA (Sigma Aldrich) was diluted with TR-FRET detection buffer (Perkin-Elmer) to a concentration of 4× (40 mM) the final reaction concentration. A europium-labeled anti-phosphotyrosine antibody (Perkin-Elmer) was diluted in the above EDTA dilution to a concentration of 4× (8 nM) the final reaction concentration to prepare a stop solution of the RON kinase reaction. The stop solution was added to the 384-well plate at 10 μL/well to terminate the reaction, and the plate was incubated at room temperature for 60 minutes. Thereafter, the plate was read on Victor X5 plate reader (Perkin-Elmer). At this time, the excitation wavelength was 340 nm and the emission wavelengths were 620 nm and 665 nm. The IC50 values of the sample compounds were determined using GraphPad Prism™ 5 by expressing the emission energy at 665 nm as a function of the sample compound concentration.
`COCCNCc1ccc(-c2cc3nccc(Oc4ccc(NC(=O)c5cc(Br)cn(-c6ccc(F)cc6)c5=O)cc4F)c3s2)nc1` [Example 23, 5-bromo-N-(3-fluoro-4-{[2-(5-1 [(2-methoxyethyl)amino]methyl}pyridin-2-yl)thieno[3,2-b]pyridin-7-yl]oxy}phenyl)-1-(4-fluorophenyl)-2-oxo-1,2-dihydropyridine-3-carboxamide Hydrochloride] gave an IC50 of 8.05 nM. Same read-out and setting: under `COCCNCc1ccc(-c2cc3nccc(Oc4ccc(NC(=O)c5cc(Cl)cn(-c6ccc(F)cc6)c5=O)cc4F)c3s2)nc1` [Example 24, 5-chloro-N-(3-fluoro-4-{[2-(5-{[(2-methoxyethyl)amino]methyl}pyridin-2-yl)thieno[3,2-b]pyridin-7-yl]oxy}phenyl)-1-(4-fluorophenyl)-2-oxo-1,2-dihydropyridine-3-carboxamide Hydrochloride] stands 24.2 nM; under `COCCNCc1ccc(-c2cc3nccc(Oc4ccc(NC(=O)c5c(OC)ccn(-c6ccc(F)cc6)c5=O)c(Cl)c4)c3s2)nc1` [Example 10, N-(2-chlor-4-{[-2-(5-{[(2-methoxyethyl)amino]methyl}pyridin-2-yl)thieno[3,2-b]pyridin-7-yl]oxy}phenyl)-1-(4-fluorophenyl)-4-methoxy-2-oxo-1,2-dihydropyridine-3-carboxamide Hydrochloride], 5.66 nM; under `COCCNCc1ccc(-c2cc3nccc(Oc4ccc(NC(=O)c5c(OC)ccn(-c6ccc(Cl)cc6)c5=O)cc4F)c3s2)nc1` [Example 13, 1-(4-chlorophenyl)-N-(3-fluoro-4-{[2-(5-{[(2-methoxyethyl)amino]methyl}pyridin-2-yl)thieno[3,2-b]pyridin-7-yl]oxy}phenyl)-4-methoxy-2-oxo-1,2-dihydropyridine-3-carboxamide Hydrochloride], 1.14 nM. On the same count and under the same terms, in the case of `COCCNCc1ccc(-c2cc3nccc(Oc4ccc(NC(=O)c5cc(C)cn(-c6ccc(F)cc6)c5=O)cc4F)c3s2)nc1` [Example 29, N-(3-fluoro-4-{[-2-(5-{[(2-methoxyethyl)amino]methyl}pyridin-2-yl)thieno[3,2-b]pyridin-7-yl]oxy}phenyl)-1-(4-fluorophenyl)-5-methyl-2-oxo-1,2-dihydropyridine-3-carboxamide Hydrochloride] it was 1.21 nM; in that of `COCCNCc1ccc(-c2cc3nccc(Oc4ccc(NC(=O)c5cc(C)c(C)n(-c6ccc(F)cc6)c5=O)cc4F)c3s2)nc1` [Example 27, N-(3-fluoro-4-([2-(5-{[(2-methoxyethyl)amino)methyl]pyridin-2-yl}thieno[3,2-b]pyridin-7-yl)oxy]phenyl}-1-(4-fluorophenyl)-5,6-dimethyl-2-oxo-1,2-dihydropyridine-3-carboxamide Hydrochloride], 1.93 nM. The same measure, in the same setting: under `CCOc1ccn(-c2ccc(F)cc2)c(=O)c1C(=O)Nc1ccc(Oc2ccnc3cc(-c4ccc(CN5CCOCC5)cn4)sc23)cc1Cl` [Example 37, N-[2-chloro-4-({2-[5-(morpholinomethyl)pyridin-2-yl]thieno[3,2-b]pyridin-7-yl}oxy)phenyl]-4-ethoxy-1-(4-fluorophenyl)-2-oxo-1,2-dihydropyridine-3-carboxamide Hydrochloride] stands 10.3 nM; under `COCCNCc1ccc(-c2cc3nccc(Oc4ccc(NC(=O)c5c(C)cnn(-c6ccc(F)cc6)c5=O)cc4F)c3s2)nc1` [Example 17, N-(3-fluoro-4-{[2-(5-{[(2-methoxyethyl)amino]methyl}pyridin-2-yl)thieno[3,2-b]pyridin-7-yl]oxy}phenyl)-2-(4-fluorophenyl)-5-methyl-3-oxo-2,3-dihydropyridazine-4-carboxamide Hydrochloride], 1.59 nM; under `COCCNCc1ccc(-c2cc3nccc(Oc4ccc(NC(=O)c5cccn(-c6ccccc6)c5=O)cc4F)c3s2)nc1` [Example 5, N-(3-fluoro-4-{[2-(5-{[(2-methoxyethyl)amino]methyl}pyridin-2-yl)thieno[3,2-b]pyridin-7-yl]oxy}phenyl)-2-oxo-1-phenyl-1,2-dihydropyridine-3-carboxamide Hydrochloride], 1.15 nM.

Turning to `CCOc1ccn(-c2ccc(Cl)cc2)c(=O)c1C(=O)Nc1ccc(Oc2ccnc3cc(-c4ccc(CN5CCOCC5)cn4)sc23)c(F)c1` [Example 35, 1-(4-chlorophenyl)-4-ethoxy-N-[3-fluoro-4-({2-[5-(morpholinomethyl)pyridin-2-yl]thieno[3,2-b]pyridin-7-yl}oxy)phenyl]-2-oxo-1,2-dihydropyridine-3-carboxamide Hydrochloride], the IC50 is 2.55 nM. Compared with the last molecule, the IC50 is about 2.2-fold higher. On the same count and under the same terms, in the case of `COCCNCc1ccc(-c2cc3nccc(Oc4ccc(NC(=O)c5ccnn(-c6ccccc6)c5=O)cc4F)c3s2)nc1` [Example 19, N-(3-fluoro-4-{[2-(5-{[(2-methoxyethyl)amino]methyl}pyridin-2-yl)thieno[3,2-b]pyridin-7-yl]oxy}phenyl)-3-oxo-2-phenyl-2,3-dihydropyridazine-4-carboxamide Hydrochloride] it was 3.66 nM; in that of `CCOc1ccn(-c2ccc(F)cc2)c(=O)c1C(=O)Nc1ccc(Oc2ccnc3cc(-c4ccc(CN(CCOC)C(=O)OC(C)(C)C)cn4)sc23)c(F)c1` [Example 6, t-butyl {[6-(7-{4-[4-ethoxy-1-(4-fluorophenyl)-2-oxo-1,2-dihydropyridine-3-carboxamido]-2-fluorophenoxy}thieno[3,2-b]pyridin-2-yl)pyridin-3-yl]methyl}(2-methoxyethyl)carbamate], 21.9 nM. The same measure, in the same setting: under `CCOc1ccn(-c2ccc(OC)cc2)c(=O)c1C(=O)Nc1ccc(Oc2ccnc3cc(-c4ccc(CNCCOC)cn4)sc23)c(F)c1` [Example 15, 4-ethoxy-N-(3-fluoro-4-{[2-(5-{[(2-methoxyethyl)amino]methyl}pyridin-2-yl)thieno[3,2-b]pyridin-7-yl]oxy}phenyl)-1-(4-methoxyphenyl)-2-oxo-1,2-dihydropyridine-3-carboxamide Hydrochloride] stands 2.93 nM. Same read-out and setting: in the case of `CCOc1ccn(-c2ccc(C(F)(F)F)cc2)c(=O)c1C(=O)Nc1ccc(Oc2ccnc3cc(-c4ccc(CNCCOC)cn4)sc23)c(F)c1` [Example 12, 4-ethoxy-N-(3-fluoro-4-{[2-(5-{[(2-methoxyethyl)amino]methyl}pyridin-2-yl)thieno[3,2-b]pyridin-7-yl]oxy}phenyl)-2-oxo-1-(4-(trifluoromethyl)phenyl)-1,2-dihydropyridine-3-carboxamide Hydrochloride] it was 2.1 nM; in that of `CCOc1ccn(-c2ccc(F)cc2)c(=O)c1C(=O)Nc1ccc(Oc2ccnc3cc(-c4ccc(CNCCOC)cn4)sc23)cc1Cl` [Example 26, N-(2-chloro-4-{[2-(5-{[(2-methoxyethyl)amino]methyl}pyridin-2-yl)thieno[3,2-b]pyridin-7-yl]oxy}phenyl)-4-ethoxy-1-(4-fluorophenyl)-2-oxo-1,2-dihydropyridine-3-carboxamide Hydrochloride], 3.7 nM.

The next experiment has as its system RON-activated KM12C colon cancer cell line. Put plainly: Cell killing efficacy, trypan blue exclusion assay, KM12C. It counts as cell-based. The settings on record: 1 μM, 48 hours. Here is the method:
(§1) Two colon cancer cell lines, RON-activated KM12C (80015, KCLB, MEM+10% FBS) and RON-mutated (Δ160) HT-29 (30038, KCLB, RPMI+10% FBS) were prepared in 6-well plates at 5×10^4 cells/well, respectively. After 24 hours, while freshly changing the medium, the sample compounds were added to the wells at a concentration of 1 μM or 5 μM and the plates were allowed to stand for 48 hours.
(§2) As the sample compounds, the compounds synthesized in the examples of the present invention and the compounds of the comparative examples were used.
(§3) After 48 hours, the cell suspensions were collected and centrifuged (1,500 rpm, 4 min.) to obtain the cells, and live cells and dead cells were quantitated (n=2) through a trypan blue (15250-061, Gibco) exclusion assay. The statistical analysis was performed using Excel™ T-test from Microsoft.
(§4) The cell death rates of the compounds of Examples and Comparative Examples were respectively measured and the results are shown in Table 4 as relative ratios to Comparative Example 1.
Turning to `CCOc1ccn(-c2ccccc2)c(=O)c1C(=O)Nc1ccc(Oc2ccnc3cc(-c4ccc(CN5CCN(C)CC5)cn4)sc23)c(F)c1.Cl` [Example 34], the “Cell death rate (Relative to Comp. Ex. 1)” value is given as “x 2.07”.

Still in this experiment, the particulars now being: 5 μM, 48 hours.
Take `CCOc1ccn(-c2ccccc2)c(=O)c1C(=O)Nc1ccc(Oc2ccnc3cc(-c4ccc(CN5CCN(C)CC5)cn4)sc23)c(F)c1.Cl` [Example 34]: the “Cell death rate (Relative to Comp. Ex. 1)” value is reported as “x 1.11”.

Another experiment concerns RON-mutated (Δ160) HT-29 colon cancer cell line. The experiment can be described thus: Cell killing efficacy, trypan blue exclusion assay, HT-29. It counts as cell-based. The settings on record: HT29 cell, 1 μM, 48 hours. As for the experimental part:
as §1, §2, §3, §4
`CCOc1ccn(-c2ccccc2)c(=O)c1C(=O)Nc1ccc(Oc2ccnc3cc(-c4ccc(CN5CCN(C)CC5)cn4)sc23)c(F)c1.Cl` [Example 34]: the “Cell death rate (Relative to Comp. Ex. 1)” value was “x 2.12”.

The experiment is the same for the next values; noted with them: HT29 cell, 5 μM, 48 hours.
With `CCOc1ccn(-c2ccccc2)c(=O)c1C(=O)Nc1ccc(Oc2ccnc3cc(-c4ccc(CN5CCN(C)CC5)cn4)sc23)c(F)c1.Cl` [Example 34], the “Cell death rate (Relative to Comp. Ex. 1)” value is given as “x 1.66”.
